What was measured:
[1] = Drug tolerance in murine intestinal organoids (alamarBlue); assay type: cell-based, mouse; conditions: Balb/c, mouse, murine intestinal organoids, 72 h exposure
Method: (§1) Amastigotes obtained from mouse bone marrow cells were used to perform a first screening with the complete series of fused 1,5- and 1,8-naphthyridines. […] The toxicity of these selected compounds was assessed in non-infected splenic cells and the cytotoxic concentration (CC50) value obtained was used to calculate the selective index (SI). The oral tolerability of these same compounds was tested by calculating the viability of murine intestinal organoids exposed to two concentrations (50 and 25 µM).
(§2) Preparation and maintenance of murine intestinal organoids cultures were performed following the protocols published by Stemcell Technologies™ (https://www.stemcell.com/intestinal-epithelial-organoid-culture-with-intesticult-organoid-growth-medium-mouse-lp.html#protocols, accessed on 14 December 2023) with some modifications. Briefly, a section of small intestine from a Balb/c mouse was extracted and washed with ice-cold PBS. This section was cut into pieces around 2 mm each, washed 15–20 times with ice-cold PBS and incubated with Gentle Cell Dissociation Reagent (Stemcell Technologies™, Vancouver, BC, Canada) for 20 min. Then, the pieces were resuspended in ice-cold PBS with 0.1% BSA and left to settle at the bottom of the tube. The supernatant was collected and filtered through a 70 µm strainer. This process was repeated a total of four times obtaining different fractions. Cells from these fractions were centrifugated at 300× g for 5 min at 4 °C, washed with ice-cold PBS + 0.1% BSA and resuspended on 10 mL of ice-cold DMEM/F12 supplemented with glutamine and HEPES 15 mM (Gibco, Thermo Fisher Scientific, Waltham, MA, USA). After the evaluation under a microscope, the fraction with the highest crypt number but the lowest detritus presence was chosen. This fraction was centrifugated at 200× g for 5 min at 4 °C and the pellet was resuspended in a 1:1 mix of Geltrex GFR LDEV-free (Gibco, Fisher Scientific, Waltham, MA, USA) and IntestiCult™ Organoid Grow Medium Mouse (Stemcell Technologies™, Vancouver, BC, Canada). Fifty microliters of the suspension were pipetted into the middle of each well of a pre-heated 24-well plate and incubated at 37 °C for 10 min to allow polymerization of the matrix. In the end, 500 µL of IntestiCult™ Organoid Grow Medium was added to each well. The plates were incubated at 37 °C and 5% CO2, changing the culture medium every 48 h. Organoids were split 1 into 4 plates after 7 days.
(§3) Drug tolerance assays using murine intestinal organoids were performed in 384-well plates, following a protocol based on previous works and introducing several modifications. Briefly, organoids were prepared discarding the culture medium and adding 800 µL of Gentle Cell Dissociation Reagent (Stemcell Technologies™, Vancouver, BC, Canada) directly on top of matrix domes. After 1 min incubation at room temperature, the matrix was broken by pipetting, and the content of the wells was retrieved. The suspension was incubated at room temperature for 10 min on a rocking platform at 20 rpm, and centrifugated at 300× g for 5 min at 4 °C. The pellet was resuspended in 10 mL of ice-cold DMEM/F12 (Gibco, Fisher Scientific, Waltham, MA, USA) supplemented with glutamine and HEPES 15 mM and centrifugated again at 200× g for 5 min at 4 °C. Cells were resuspended in a 1:1 mix of Geltrex GFR LDEV-free and IntestiCult™ Organoid Grow Medium Mouse (Stemcell Technologies™, Vancouver, Canada). The final volume of the mix was calculated to achieve a 4-fold dilution in the final plate compared to the original plate. The mix was distributed in a 384-well plate (8 µL/well) which was incubated at 37 °C for 10 min. After that, 32 µL of IntestiCult™ Organoid Grow Medium Mouse (Stemcell Technologies™, Vancouver, Canada) were added to each well. The plate was incubated at 37 °C and 5% CO2 and after 4 days, mature organoids were exposed to drugs, alone or combined. For positive control, hydrogen peroxide at the final concentration of 0.15 % v/v was used. […]

[2] = tested on: murine intestinal organoids; test: as above; assay type: cell-based, mouse; conditions: 50 µM, 72 h exposure
Method: as §1, §2, §3

[3] = tested on: mouse splenic macrophages; test: Cytotoxicity in uninfected murine splenic cells (alamarBlue); assay type: cell-based; conditions: summary in discussion
Method: Amastigotes obtained from mouse bone marrow cells were used to perform a first screening with the complete series of fused 1,5- and 1,8-naphthyridines. […] The toxicity of these selected compounds was assessed in non-infected splenic cells and the cytotoxic concentration (CC50) value obtained was used to calculate the selective index (SI). The oral tolerability of these same compounds was tested by calculating the viability of murine intestinal organoids exposed to two concentrations (50 and 25 µM). In order to assess the in vitro safety of the naphthyridines, cytotoxicity assays were carried out in ex vivo splenic explants from uninfected mice, which were prepared as previously described to obtain intramacrophagic amastigotes. Cells were seeded at a density of 1 × 10^6 cells per well in 96-well plates containing the prediluted compounds and incubated at 37 °C and 5% CO2 during 72 h. AlamarBlue assay (Invitrogen, Fisher Scientific, Waltham, MA, USA) was used to estimate cell viability following manufacturer’s recommendations. The assays were performed by triplicate. Absorbance of viable cells vs. compound concentrations were fitted by nonlinear analysis using the Sigma Plot 10.1 statistical package to calculate the cytotoxic concentration 50 (CC50) values. Selectivity index (SI) was calculated as the ratio between CC50 and the EC50 values of intramacrophagic amastigotes.

[4] = tested on: leishmanial DNA topoisomerase IB (LdTopIB); test: Relaxation of supercoiled plasmid DNA assay; assay type: biochemical, Leishmania; conditions: 100 μM of compounds, 1 min at 37 °C, in words
Method: page 2: DNA DMSO 6b8a8b8c9b10b11a13a13b14a7c8d15b Relaxationof supercoiled plasmid DNA assay. Each reaction contains one unit of purified leishmanial DNA topisomeraseIB enzyme (LdTopIB), 100 μM ofcompounds, 0.5μg of supercoiled […], 10 mM Tris-HCl buffer pH 7.5, 5 mM MgCl 2, 0.1 mM EDTA, 15 μg/mL bovine serum albumin, 150 mM KCl. Reaction mixtures were incubated 1 min at 37 °C and stopped by the addition of 4 μL loading buffer (5% sarkosyl, 0.12% bromophenol blue, 25% glycerol). The topoisomerswere resolved in 1% agarose gels by electrophoresis in 0.1 M Tris borate EDTA buffer (pH 8.0) at 2 V/cm for 16 h and visualized with UV illumination after ethidium bromide (0.5μg/mL) staining. […]

[5] = tested on: recombinant human DNA topoisomerase IB (hTopIB); parameters: method as in PMID 31229877, PMID 32279049, PMID 33962152; dose or concentration left out as unconfirmed; conditions: cited from earlier work
two cancer cell lines = tested on: two cancer cell lines; parameters: method as in PMID 31229877, PMID 32279049, PMID 33962152; conditions: cited from earlier work

Compound | viability at 72 h, 25 µM [1] | viability at 72 h, 50 µM [1] | Intestinal Organoids 50 µM (%Viability) [2] | toxicity (in words) [3] | LdTopIB inhibitory activity [4] | inhibitory effect on DNA relaxation activity of hTopIB [5] | cytotoxic effects on two cancer cell lines (concentration range) (two cancer cell lines)
O=C1Oc2ccccc2C2Nc3ccc(Br)nc3[C@@H](c3ccccc3)C12 (stereo partly drawn) [Compound 6b] | 72 ± 5% | 60 ± 7% | – | – | – | – | –
COc1ccc2nc3c(c(-c4ccccc4)c2n1)c(=O)oc1ccccc13 [Compound 7c] | 99 ± 4% | 85 ± 13% | – | – | – | – | –
Cc1ccc(S(=O)(=O)N2CC3C(Nc4cccnc4[C@H]3c3ccccc3)c3ccccc32)cc1 (stereo partly drawn) [Compound 8a] | 93 ± 7% | 89 ± 10% | – | – | – | – | –
COc1ccc2c(n1)[C@@H](c1ccccc1)C1CN(S(=O)(=O)c3ccc(C)cc3)c3ccccc3C1N2 (stereo partly drawn) [Compound 8c] | > 100% | 100% | >100% | – | – | – | –
Cc1ccc(S(=O)(=O)N2CC3C(Nc4ccc(Br)nc4[C@H]3c3ccccc3)c3ccccc32)cc1 (stereo partly drawn) [Compound 8d] | 4 ± 1% | 3 ± 1% | – | – | – | – | –
Fc1ccc2c(c1)C1Nc3ncccc3[C@@H](c3ccccc3)C1CO2 (stereo partly drawn) [Compound 10b] | 99 ± 8% | 90% | 90 ± 22% | – | – | – | –
c1ccc(-c2c3c(nc4ncccc24)-c2ccccc2OC3)cc1 [Compound 11a] | 92 ± 1% | 96 ± 1% | – | – | – | – | –
O=c1oc2ccccc2c2nc3ncccc3c(-c3ccccc3)c12 [Compound 13a] | 87 ± 15% | 53 ± 5% | – | significant toxicity | did not show leishmanial DNA topoisomerase IB (LdTopIB) inhibitory activity | had an inhibitory effect on DNA relaxation activity | 1 to 15 µM
O=c1oc2ccccc2c2nc3ncc(Br)cc3c(-c3ccccc3)c12 [Compound 13b] | 90 ± 5% | 61 ± 19% | – | – | – | – | –
Cc1ccc(S(=O)(=O)N2CC3C(Nc4ncccc4C3c3ccccc3)c3ccccc32)cc1 (stereo not drawn) [Compound 14a] | 90 ± 9% | 56 ± 14% | – | significant toxicity | did not show leishmanial DNA topoisomerase IB (LdTopIB) inhibitory activity | had an inhibitory effect on DNA relaxation activity | 1 to 15 µM
Cc1ccc(S(=O)(=O)N2Cc3c(nc4ncc(Br)cc4c3-c3ccccc3)-c3ccccc32)cc1 [Compound 15b] | 58 ± 16% | 13 ± 3% | – | significant toxicity | did not show leishmanial DNA topoisomerase IB (LdTopIB) inhibitory activity | had an inhibitory effect on DNA relaxation activity | 1 to 15 µM

— PMC10780244, “Antileishmanial Effect of 1,5- and 1,8-Substituted Fused Naphthyridines” (Molecules, 2023)
